Data reported in patent US9938279B2, “Method for treating disease or condition susceptible to amelioration by AMPK activators and compounds of formula which are useful to activate AMP-activated protein kinase (AMPK)” (ENERGENESIS BIOMEDICAL CO., LTD, priority 2013, dated 2018).

Experiments:
AMPK [1] = assay: AMPK activation assay (western blot phospho-AMPK Thr172) in 3T3-L1; type: cell-based, mouse; details: 3T3-L1 cells, 30 min treatment
Experimental: (§1) Effects of compounds on AMPK activation were analyzed in mouse muscle cell C2C12, mouse fibroblast 3T3-L1 and human hepatocyte Hep G2. Those cell lines were cultured in high-glucose Dulbecco's modified Eagle's medium (DMEM) containing 10% fetal bovine serum (FBS), 4 mM L-glutamine, 2 mM sodium pyruvate and 1% penicillin/streptomycin (Invitrogen GibcoBRL, Carlsbad, Calif., USA) at 37° C. under 5% CO2. Cells were plated at 3×10^5 per well (6-well plate). 24 h after plating, cells were treated with indicated compounds for 30 min followed by cell lysis and western blot analysis. Equal amount of protein were separated by SDS-PAGE and then electroblotted on to PVDF membranes. Membranes were blocked with 3% BSA in PBS for 60 min and incubated with anti-phospho-AMPK (Thr172) antibody (1:2,000, Cell signaling), anti-AMPK antibody (1:2,000, Cell signaling), anti-Glut4 antibody (1:1,000, Millipore) or anti-actin antibody (1:5,000; Chemicon International) at 4° C. overnight followed by the corresponding secondary antibody for 1 h at room temperature (RT). Immunoreactive bands were detected by enhanced chemiluminescence (ECL; Pierce, Rockford, Ill., USA) and recorded using Kodakfilm (Rochester, N.Y., USA). The detected signals were scanned and then quantified by using TotalLab Quant software (TotalLab).

AMPK [2] = assay: AMPK activation assay (western blot phospho-AMPK Thr172) in Hep G2; type: cell-based, human; details: Hep G2 cells, 30 min treatment
Experimental: as §1

AMPK [3] = assay: AMPK activation assay (western blot phospho-AMPK Thr172) in C2C12; type: cell-based, mouse; details: C2C12 cells, 30 min treatment
Experimental: as §1

Row | SMILES | AMPK activation (% to control) 3T3-L1 (AMPK [1]; 1 microM) | AMPK activation (% to control) 3T3-L1 (AMPK [1]; 10 microM) | AMPK activation (% to control) 3T3-L1 (AMPK [1]; 100 microM) | AMPK activation (% to control) 3T3-L1 (AMPK [1]; 200 microM) | AMPK activation (% to control) Hep G2 (AMPK [2]; 1 microM) | AMPK activation (% to control) Hep G2 (AMPK [2]; 10 microM) | AMPK activation (% to control) Hep G2 (AMPK [2]; 100 microM) | AMPK activation (% to control) Hep G2 (AMPK [2]; 200 microM) | AMPK activation (% to control) C2C12 (AMPK [3]; 1 microM) | AMPK activation (% to control) C2C12 (AMPK [3]; 10 microM) | AMPK activation (% to control) C2C12 (AMPK [3]; 100 microM) | AMPK activation (% to control) C2C12 (AMPK [3]; 200 microM)
1 | Nc1nc(N)c2[nH]cnc2n1 [2,6-diaminopurine] | 108 % to control | 149 % to control | 288 % to control | 335 % to control | 113 % to control | 155 % to control | 274 % to control | 397 % to control | 116 % to control | 181 % to control | 281 % to control | 381 % to control
2 | Oc1nc(O)c2[nH]cnc2n1 [2,6-dihydroxypurine] | 109 % to control | 132 % to control | 205 % to control | 361 % to control | 114 % to control | 139 % to control | 198 % to control | 302 % to control | 105 % to control | 115 % to control | 231 % to control | 347 % to control
3 | Sc1nc(S)c2[nH]cnc2n1 [2,6-dimercaptopurine] | 102 % to control | 98 % to control | 178 % to control | 260 % to control | 110 % to control | 133 % to control | 244 % to control | 366 % to control | 104 % to control | 117 % to control | 215 % to control | 298 % to control
4 | COc1cccc(CNc2nc(N)nc3nc[nH]c23)c1OC [2-amino-6-(2,3-dimethoxybenzylamino)purine] | 118 % to control | 156 % to control | 250 % to control | 347 % to control | 115 % to control | 127 % to control | 229 % to control | 318 % to control | 106 % to control | 144 % to control | 263 % to control | 334 % to control
5 | COc1cc(CNc2nc(C)nc3nc[nH]c23)cc(OC)c1OC [2-methyl-6-(3,4,5-trimethoxybenzylamino)purine] | 115 % to control | 141 % to control | 254 % to control | 346 % to control | 112 % to control | 168 % to control | 270 % to control | 359 % to control | 106 % to control | 117 % to control | 211 % to control | 361 % to control
6 | O=C1CCNC(=O)N1 [5,6-dihydrouracil] | 116 % to control | 159 % to control | 268 % to control | 341 % to control | 120 % to control | 167 % to control | 274 % to control | 360 % to control | 108 % to control | 114 % to control | 207 % to control | 326 % to control
7 | Clc1cccc(Nc2ncnc3nc[nH]c23)c1 [6-(3-chloroanilino)purine] | 116 % to control | 130 % to control | 217 % to control | 301 % to control | 106 % to control | 109 % to control | 212 % to control | 319 % to control | 108 % to control | 118 % to control | 186 % to control | 307 % to control
8 | Nc1cc[nH]c(=O)n1 [Cytosine] | 117 % to control | 127 % to control |  | 310 % to control | 117 % to control | 164 % to control | 281 % to control | 359 % to control | 119 % to control | 158 % to control | 253 % to control | 361 % to control
9 | CN(C)c1nc(O)c2[nH]cnc2n1 [Example 2-Dimethylamino-6-hydroxypurine, 2-Dimethylamino-6-hydroxypurine] | 106 % to control | 108 % to control | 205 % to control | 264 % to control | 117 % to control | 132 % to control | 185 % to control | 218 % to control | 105 % to control | 111 % to control | 229 % to control | 298 % to control
10 | CC(C)CCNc1nc(N)nc2nc[nH]c12 [Example 2-amino-6-isopentylaminopurine, 2-amino-6-isopentylaminopurine] | 110 % to control | 169 % to control | 271 % to control | 361 % to control | 117 % to control | 174 % to control | 250 % to control | 341 % to control | 104 % to control | 114 % to control | 238 % to control | 305 % to control
11 | Nc1nc(S)c2[nH]cnc2n1 [Example 2-amino-6-mercaptopurine, 2-amino-6-mercaptopurine] | 105 % to control | 119 % to control | 251 % to control | 277 % to control | 112 % to control | 124 % to control | 209 % to control | 261 % to control | 118 % to control | 122 % to control | 228 % to control | 284 % to control
12 | CNc1nc(N)nc2nc[nH]c12 [Example 2-amino-6-methylaminopurine, 2-amino-6-methylaminopurine] | 109 % to control | 135 % to control | 220 % to control | 332 % to control | 114 % to control | 139 % to control | 230 % to control | 348 % to control | 119 % to control | 187 % to control | 215 % to control | 351 % to control
